Source: paper PMC9403976, “Elucidating the path to Plasmodium prolyl-tRNA synthetase inhibitors that overcome halofuginone resistance” (Nature Communications, 2022)
Values joined by “and” are separate entries in the source; they are usually repeats but may differ in a detail not shown here. Identical values can stand only once. Like-named read-outs stand apart in the source and are kept apart here.

Legend:
[1] = molecular target: HsProRS (Homo sapiens, UniProt P07814); assay: TR-FRET ligand displacement assay with tracer MAT379 (CoraFluor-1-Halo and anti-His6 antibody formats); assay type: binding; set-up: made in house; host or cells: E. coli SoluBL-21; details: for TR-FRET dose-response, normalized signal (SI Fig 11): individual replicates
[2] = molecular target: T1, PfcProRS (Plasmodium falciparum, UniProt Q8I5R7); assay type: binding; details: single replicates
T1 construct: made in house; host or cells: E. coli SoluBL-21
T1 sequence (Q8I5R7 249-746): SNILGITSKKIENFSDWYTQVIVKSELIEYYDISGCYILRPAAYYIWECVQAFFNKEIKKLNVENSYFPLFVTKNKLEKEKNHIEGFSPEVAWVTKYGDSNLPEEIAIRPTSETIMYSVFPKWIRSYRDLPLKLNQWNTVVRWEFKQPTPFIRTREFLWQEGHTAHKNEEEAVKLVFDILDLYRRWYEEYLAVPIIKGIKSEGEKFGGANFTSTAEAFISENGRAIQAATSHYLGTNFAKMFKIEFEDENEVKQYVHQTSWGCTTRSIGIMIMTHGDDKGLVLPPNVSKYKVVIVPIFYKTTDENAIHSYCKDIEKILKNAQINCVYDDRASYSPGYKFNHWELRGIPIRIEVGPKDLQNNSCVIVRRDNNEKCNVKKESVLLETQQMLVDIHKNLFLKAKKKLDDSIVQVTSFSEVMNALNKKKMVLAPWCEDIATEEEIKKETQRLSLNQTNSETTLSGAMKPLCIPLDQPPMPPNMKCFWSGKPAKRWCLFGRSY

Chain of HsProRS (P07814 996-1512): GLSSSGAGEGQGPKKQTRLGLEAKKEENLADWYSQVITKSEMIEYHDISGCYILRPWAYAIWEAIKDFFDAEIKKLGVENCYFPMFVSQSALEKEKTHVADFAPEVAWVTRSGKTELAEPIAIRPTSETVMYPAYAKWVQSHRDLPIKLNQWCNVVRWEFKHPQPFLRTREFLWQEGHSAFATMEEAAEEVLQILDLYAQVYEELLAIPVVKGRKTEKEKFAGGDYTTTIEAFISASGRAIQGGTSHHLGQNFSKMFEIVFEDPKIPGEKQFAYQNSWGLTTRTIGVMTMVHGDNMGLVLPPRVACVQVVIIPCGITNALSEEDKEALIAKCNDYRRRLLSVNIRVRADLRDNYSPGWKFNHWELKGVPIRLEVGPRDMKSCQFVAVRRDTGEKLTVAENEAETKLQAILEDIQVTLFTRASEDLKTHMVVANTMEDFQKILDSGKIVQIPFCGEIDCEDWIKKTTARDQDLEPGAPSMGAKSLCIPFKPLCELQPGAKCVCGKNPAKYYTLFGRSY

NCC1CCN(C(=O)Nc2nccnc2C(=O)NC2Cc3ccccc3C2)CC1 [compound 10]
IC50 [1]: > 10 µM
Kd ([1]; HsProRS (KD [nM]) + 100 μM proline mean, + 100 μM proline): 1360 nM
normalized TR-FRET ligand displacement signal, dose-response replicates (SI Fig 6) ([1]; Log[inhibitor] (M) -5.000): 7.52E-01 and 7.79E-01 and 7.62E-01
TR-FRET dose-response, normalized signal (SI Fig 11) ([1]; Log[inhibitor] (M) -5.000): 6.05E-01 and 5.95E-01 and 6.36E-01
normalized TR-FRET ligand displacement signal, dose-response replicates (SI Fig 6) ([1]; Log[inhibitor] (M) -5.301): 8.20E-01 and 8.88E-01 and 8.92E-01
TR-FRET dose-response, normalized signal (SI Fig 11) ([1]; Log[inhibitor] (M) -5.301): 6.96E-01 and 7.22E-01 and 7.09E-01
normalized TR-FRET ligand displacement signal, dose-response replicates (SI Fig 6) ([1]; Log[inhibitor] (M) -5.601): 9.12E-01 (2×) and 9.52E-01
TR-FRET dose-response, normalized signal (SI Fig 11) ([1]; Log[inhibitor] (M) -5.601): 8.44E-01 and 7.94E-01 and 8.38E-01
normalized TR-FRET ligand displacement signal, dose-response replicates (SI Fig 6) ([1]; Log[inhibitor] (M) -5.904): 1.12E+00 and 9.84E-01 and 8.91E-01
TR-FRET dose-response, normalized signal (SI Fig 11) ([1]; Log[inhibitor] (M) -5.904): 8.92E-01 and 8.20E-01 and 8.24E-01
normalized TR-FRET ligand displacement signal, dose-response replicates (SI Fig 6) ([1]; Log[inhibitor] (M) -6.208): 9.97E-01 and 8.76E-01 and 9.90E-01
TR-FRET dose-response, normalized signal (SI Fig 11) ([1]; Log[inhibitor] (M) -6.208): 8.69E-01 and 8.29E-01 and 9.13E-01
normalized TR-FRET ligand displacement signal, dose-response replicates (SI Fig 6) ([1]; Log[inhibitor] (M) -6.509): 9.61E-01 and 1.04E+00 and 9.10E-01
TR-FRET dose-response, normalized signal (SI Fig 11) ([1]; Log[inhibitor] (M) -6.509): 9.27E-01 and 8.13E-01 and 9.47E-01
normalized TR-FRET ligand displacement signal, dose-response replicates (SI Fig 6) ([1]; Log[inhibitor] (M) -6.796): 1.04E+00 and 1.06E+00 and 1.01E+00
TR-FRET dose-response, normalized signal (SI Fig 11) ([1]; Log[inhibitor] (M) -6.796): 9.41E-01 and 8.80E-01 and 8.81E-01
normalized TR-FRET ligand displacement signal, dose-response replicates (SI Fig 6) ([1]; Log[inhibitor] (M) -7.108): 1.05E+00 and 9.51E-01 and 1.07E+00
TR-FRET dose-response, normalized signal (SI Fig 11) ([1]; Log[inhibitor] (M) -7.108): 8.72E-01 and 9.00E-01 and 8.74E-01
normalized TR-FRET ligand displacement signal, dose-response replicates (SI Fig 6) ([1]; Log[inhibitor] (M) -7.409): 8.85E-01 and 9.14E-01 and 8.87E-01
TR-FRET dose-response, normalized signal (SI Fig 11) ([1]; Log[inhibitor] (M) -7.409): 8.90E-01 and 8.97E-01 and 8.75E-01
normalized TR-FRET ligand displacement signal, dose-response replicates (SI Fig 6) ([1]; Log[inhibitor] (M) -7.710): 9.64E-01 (2×) and 8.88E-01
TR-FRET dose-response, normalized signal (SI Fig 11) ([1]; Log[inhibitor] (M) -7.710): 8.83E-01 and 8.58E-01 and 9.38E-01
normalized TR-FRET ligand displacement signal, dose-response replicates (SI Fig 6) ([1]; Log[inhibitor] (M) -8.000): 9.97E-01 and 1.02E+00 and 9.70E-01
TR-FRET dose-response, normalized signal (SI Fig 11) ([1]; Log[inhibitor] (M) -8.000): 9.01E-01 and 9.27E-01 and 9.34E-01
normalized TR-FRET ligand displacement signal, dose-response replicates (SI Fig 6) ([1]; Log[inhibitor] (M) -8.301): 9.79E-01 and 9.25E-01 and 8.62E-01
TR-FRET dose-response, normalized signal (SI Fig 11) ([1]; Log[inhibitor] (M) -8.301): 8.32E-01 and 8.76E-01 and 8.86E-01
normalized TR-FRET ligand displacement signal, dose-response replicates (SI Fig 6) ([1]; Log[inhibitor] (M) -8.602): 1.04E+00 and 9.88E-01 and 8.85E-01
TR-FRET dose-response, normalized signal (SI Fig 11) ([1]; Log[inhibitor] (M) -8.602): 8.91E-01 and 9.03E-01 and 9.02E-01
normalized TR-FRET ligand displacement signal, dose-response replicates (SI Fig 6) ([1]; Log[inhibitor] (M) -9.000): 9.73E-01 and 8.88E-01 and 1.05E+00
TR-FRET dose-response, normalized signal (SI Fig 11) ([1]; Log[inhibitor] (M) -9.000): 9.24E-01 and 8.78E-01 and 8.94E-01
normalized TR-FRET ligand displacement signal, dose-response replicates (SI Fig 6) ([1]; Log[inhibitor] (M) -9.301): 9.62E-01 and 9.69E-01 and 9.04E-01
TR-FRET dose-response, normalized signal (SI Fig 11) ([1]; Log[inhibitor] (M) -9.301): 9.15E-01 and 8.48E-01 and 8.61E-01
HsProRS % signal at 10 μM ([1]; no added proline/ATP (-), 10 μM): 61.2%
dose-response signal (normalized), SI Fig 8 ([2]; Log[inhibitor] (M) -5.000): 6.00E-01 and 6.56E-01 and 6.73E-01
dose-response signal (normalized), SI Fig 8 ([2]; Log[inhibitor] (M) -5.301): 9.19E-01 and 8.61E-01 and 8.50E-01
dose-response signal (normalized), SI Fig 8 ([2]; Log[inhibitor] (M) -5.601): 9.17E-01 and 9.92E-01 and 9.34E-01
dose-response signal (normalized), SI Fig 8 ([2]; Log[inhibitor] (M) -5.904): 9.34E-01 and 1.02E+00 and 9.14E-01
dose-response signal (normalized), SI Fig 8 ([2]; Log[inhibitor] (M) -6.208): 1.16E+00 and 1.11E+00 and 8.47E-01
dose-response signal (normalized), SI Fig 8 ([2]; Log[inhibitor] (M) -6.509): 1.03E+00 and 1.08E+00 and 9.82E-01
dose-response signal (normalized), SI Fig 8 ([2]; Log[inhibitor] (M) -6.796): 9.55E-01 and 9.28E-01 and 9.85E-01
dose-response signal (normalized), SI Fig 8 ([2]; Log[inhibitor] (M) -7.108): 9.16E-01 and 1.02E+00 and 1.03E+00
dose-response signal (normalized), SI Fig 8 ([2]; Log[inhibitor] (M) -7.409): 1.06E+00 and 1.03E+00 and 1.09E+00
dose-response signal (normalized), SI Fig 8 ([2]; Log[inhibitor] (M) -7.710): 8.76E-01 and 1.01E+00 and 9.98E-01
dose-response signal (normalized), SI Fig 8 ([2]; Log[inhibitor] (M) -8.000): 1.02E+00 and 1.09E+00 and 1.14E+00
dose-response signal (normalized), SI Fig 8 ([2]; Log[inhibitor] (M) -8.301): 1.04E+00 (2×) and 9.07E-01
dose-response signal (normalized), SI Fig 8 ([2]; Log[inhibitor] (M) -8.602): 1.06E+00 and 9.87E-01 and 1.02E+00
dose-response signal (normalized), SI Fig 8 ([2]; Log[inhibitor] (M) -9.000): 9.95E-01 and 1.10E+00 and 1.11E+00
dose-response signal (normalized), SI Fig 8 ([2]; Log[inhibitor] (M) -9.301): 9.71E-01 and 8.41E-01 and 1.04E+00
